Experimental data as given in patent US5366983A, “Use of quaternary ammonium compounds to remove salmonella contamination from meat products” (The Board of Trustees of The University of Arkansas, priority 1992, dated 1994).
“And” between values parts separate entries of the source, which are not always exact repeats. Identical values can stand only once. Like-named read-outs stand apart in the source and are kept apart here.

Key:
[1] = test system: Salmonella typhimurium ATCC 14028 attached to human buccal epithelial cells; assay type: cell-based; conditions: Table A-1
Description: Studies were conducted on the attachment of Salmonella typhimurium to human buccal epithelial cells using the modified procedure of Boussard et al., International J. Pharmaceutics 53: 253-256 (1989). In this study, the activities of cationic and anionic surfactant compounds as well as certain chelating agents were compared on the detachment of S. typhimurium from epithelial cells.
To this end, bacteria were grown on nutrient agar for 16 hours at 37° C. The cells were suspended in 0.008 M phosphate buffered saline (PBS) at pH 7.2 and washed two times at 4500 rpm for 10 minutes. The last suspension was diluted in PBS to obtain a cell concentration of 0.5 to 1×10^9 cells/ml. Human epithelial cells were obtained by swabbing the buccal surface of a healthy, nonsmoking donor. […] The number of living cells was estimated and the suspension diluted to 0.5 to 1×10^5 cells/ml.
Next, the suspension of the human buccal cells was mixed with an equal volume of the bacterial suspension (3.0 ml), or PBS (0.8 ml). Contact was allowed for 1.5 hours at 35° C. under agitation. The mixtures were then centrifuged for 10 minutes at 4500 rpm. Each suspension, 1.0 ml, was transferred into Eppendorf vials and washed with PBS at 1500 rpm for 10 minutes. After the washing, the cells were treated with 1.0 ml PBS or 1.0 ml of the test chemical solution. Treatment was performed by suspending and vortexing on a low speed for 30 seconds followed by centrifugation at 1500 rpm for 10 minutes.
After the treatment, the cells were washed once with PBS and then 20 μl of erythrosin B was added to each vial. The suspension was centrifuged at 1500 rpm for 10 minutes, and the cells were washed twice under the same conditions. The final pellet was suspended in 300 μl of PBS. This suspension was spread out onto microscope slides and dried overnight at room temperature. After counter staining with methylene blue, the slides were microscopically examined under oil immersion.

[2] = test system: Salmonella typhimurium ATCC 14028 attached to human buccal epithelial cells; test: microbe, parasite or virus in culture; assay type: cell-based; conditions: for adherence, mean value of attached bacteria: Table A-3; for EC50: read-out: EC50 (±SD), detachment
Description: Additional studies on the detachment of Salmonella typhimurium from human buccal epithelial cells were conducted.
S. typhimurium ATCC 14028 was grown in nutrient broth (BBL Microbiology system, Cockeysville, Md.) for 16 hours at 37° C. The cells were centrifuged and washed twice with 0.008 M phosphate buffered saline (PBS, at pH 7.2) at 4500 rpm for 10 minutes. The last suspension was diluted in PBS to obtain a cell concentration 0.5 to 1×10^9 cells/ml using spectrophotometric measurement. Human epithelial cells were obtained by swabbing the buccal surface of a healthy, nonsmoking donor. […] The number of living cells was estimated and the suspension was diluted to 0.5 to 1×10^5 cells/ml.
The suspension of the human buccal cells was mixed with an equal volume of the bacterial suspension (3.0 ml), or PBS (0.8 ml) in 10 ml Erlenmeyer flasks. Contact was allowed for 1.5 hours at 35° C. under agitation. After incubation, 1.0 ml of each suspension was transferred into an Eppendorff vial, centrifuged at 3000 rpm for 10 minutes, and washed with PBS. The cells were treated with 1.0 ml PBS or 1.0 ml of the test chemical solution. Treatment was performed by suspending, gently vortexing, and centrifuging at 1500 rpm for 10 minutes. After the treatment, the cells were washed and placed on microscopic slides for examination.
EC50 represents the inverse measurement of the potency of a compound. EC50 values were determined by a nonlinear regression of the detachment effect versus the cationic surfactant concentration data from Table A-3.

[3] = test system: Salmonella typhimurium ATCC 14028; test: Minimum growth inhibitory concentration, macrodilution; assay type: cell-based; conditions: Mueler Hinton broth, macrodilution (NCCLS)
Description: Minimum growth inhibitory concentrations (MICs) of quaternary ammonium compounds and Na2 -EDTA for Salmonella were determined using Mueler Hinton broth (BBL Microbiology system, Cockeysville, Md.) and by the macrodilution method established by the National Committee for Clinical Laboratory Standards (NCCLS). Escherichia coli ATCC 25922 and Staphylococcus aureus ATCC 29213 were included in each assay as reference strains.

[4] = test system: Salmonella typhimurium ATCC 14028; test: Effect on viability of Salmonella in suspension (Tables D-1 to D-3); assay type: cell-based; conditions: for bacterial viability: Table D-1; for EC50: Salmonella enterica, read-out: EC50 (±SD), effect on viability in suspension
Description: EC50 values for four of the compounds were calculated from the bactericidal activity of the compounds as a function of molar concentration by a nonlinear regression algorithm.
In addition to the quaternary ammonium compounds, the antimicrobial activities of chelating agents Na2 -EDTA and EGTA were investigated. Na2 -EDTA was purchased from the Sigma Chemical Company (St. Louis, Mo.). Na2 -EDTA was dissolved in 0.04 M PPB prior to the assay and further dilutions were made in the same buffer.
EGTA was purchased from the Aldrich Chemical Company (Milwaukee, Wis.). EGTA was dissolved in 0.04 M PPB according to the procedure described by Harafuji and Ogawa (J. Biochem. 87:1305-1312 (1980)). After heating EGTA for 15 minutes at 80° C., the pH was adjusted to 7.0 by addition of NaOH. EGTA was filter-sterilized using a 0.2 μm Acro disc filter (Gelman Sciences; Ann Arbor, Mich.) prior to the assay. Further dilutions were made in sterile PPB.

[5] = test system: Salmonella typhimurium on chicken skin; test: Effect of surfactants on Salmonella attached to chicken skin, drumsticks (Tables F1-F4); conditions: 25° C.
Description: The following experiments utilizing chicken legs were conducted to determine the killing potential of a variety of surfactants against Salmonella on the skin and free in solutions. To this end, chicken legs obtained from the Department of Agriculture at the University of Arkansas, Fayetteville, were incubated for thirty minutes at room temperature with a 1:5000 dilution of Salmonella typhimurium. The chicken legs were removed five at a time and then rinsed twice in tap water to remove the unattached and excess Salmonella. The rinse water was sampled, diluted, and then plated onto XLD pour plates. […] The chicken legs were then removed and rinsed twice in tap water to remove the released Salmonella and excess chemicals. Rinses were then sampled, diluted, and then plated onto XLD pour plates.
The chicken legs were then individually washed with 100 ml sterile double distilled water, and then shaken fifty times. Samples of the wash H2 O were diluted and plated onto XLD pour plates. The chicken legs were further swabbed after the washing step above. The swabs were then plated onto the XLD plates. A set of wash samples were enriched with TT Broth Base Hajna and then plated onto XLD plates.
All of the samples were plated in 1 ml aliquots onto XLD pour plates. A positive control sample incubated in sterile double distilled water at 4° C. was run for each of the aforementioned conditions. Treatments occurred at both 4° C. and 25° C. The data is reported as the mean number of CFU/ml. The ratio in the table represents the number of chicken legs out of a sample of ten chicken legs producing the notated number of colonies, as indicated by the +, ++, +++, or ++++.

[6] = Salmonella enterica, Epithelial cell

Structure (SMILES) | adherence, mean value of attached bacteria ([1]; 5 ug/ml) | adherence, mean value of attached bacteria ([1]; 50 ug/ml) | adherence, mean value of attached bacteria ([2]; 100 ug/ml) | adherence, mean value of attached bacteria ([2]; 175 ug/ml) | EC50 [2, 6] | MIC [3] | MIC ([3]; Salmonella enterica) | bacterial viability ([4]; 10 ug/ml) | bacterial viability ([4]; 20 ug/ml) | EC50 [4] | Enrichment, chicken legs out of ten ([5]; 0.1%) | Rinse H2O ([5]; 0.1%) | Surfactant Solution ([5]; 0.1%) | Swabs, chicken legs producing the notated number of colonies ([5]; 0.1%) | Swabs, colonies ([5]; 0.1%) | Wash H2O, colonies ([5]; 0.1%) | Enrichment, chicken legs out of ten ([5]; 1.0%) | Rinse H2O ([5]; 1.0%) | Surfactant Solution ([5]; 1.0%) | Swabs, chicken legs producing the notated number of colonies ([5]; 1.0%) | further results
CCCCCCCCCCCCCCCC[N+](C)(C)C.[Br-] [HTMAB, hexadecyltrimethylammonium bromide] | 49 ± 21 | 48 ± 20 | 82 ± 35 | 57 ± 33 | 333 ± 14 µM | 60 µg/mL | 64 µg/mL | 1.06 ± 0.08 × 10^9 CFU/ml and 1.67 ± 0.12 × 10^9 CFU/ml | 3.23 ± 0.38 × 10^8 CFU/ml and 6.35 ± 1.03 × 10^8 CFU/ml | 48 ± 0.03 µM | 5/10 | + (1-10) | 0 CFU/ml | 6/10 | + (1-10) | 0 CFU/ml | 0/10 | 0 CFU/ml | 0 CFU/ml | 3/10 | cytotoxicity to buccal epithelial cells ([1]; 500 ug/ml): cytotoxic; adherence, mean value of attached bacteria ([2]; 250 ug/ml): 33 ± 19; Swabs, colonies ([5]; 1.0%): + (1-10); Wash H2O, colonies ([5]; 1.0%): 0 CFU/ml; Enrichment, chicken legs out of ten ([5]; .01%): 5/10; Rinse H2O ([5]; .01%): + (1-10); Surfactant Solution ([5]; .01%): 0 CFU/ml; Swabs, chicken legs producing the notated number of colonies ([5]; .01%): 9/10; Swabs, colonies ([5]; .01%): + (1-10); Wash H2O, chicken legs producing the notated number of colonies ([5]; .01%): 10/10; Wash H2O, colonies ([5]; .01%): ++ (11-100)
CCCCCCCCCCCCCC[N+](C)(C)C.[Br-] [TTMAB, tetradecyltrimethylammonium bromide] | 37 ± 20 | 28 ± 14 | 42 ± 22 and 26 ± 14 | 28 ± 10 | 129 ± 3.9 µM | 60 µg/mL | 64 µg/mL | 1.33 ± 0.09 × 10^9 CFU/ml | 1.06 ± 0.08 × 10^9 CFU/ml | 105 ± 0.8 µM | 0/10 | ++ (11-100) | 0 CFU/ml | 5/10 | + (1-10) | 0 CFU/ml | 0/10 | 0 CFU/ml | 0 CFU/ml | 0/10 | adherence, mean value of attached bacteria ([1]; 10 ug/ml): 39 ± 26; adherence, mean value of attached bacteria ([1]; 25 ug/ml): 24 ± 13; adherence, mean value of attached bacteria ([2]; 25 ug/ml): 91 ± 66; adherence, mean value of attached bacteria ([2]; 50 ug/ml): 53 ± 34; adherence, mean value of attached bacteria ([2]; 75 ug/ml): 72 ± 53; minimal effective concentration ([2]; Salmonella enterica, Epithelial cell, read-out: active concentration, detachment): 25 µg/mL; bacterial viability ([4]; 60 ug/ml): 1.52 ± 2.07 × 10^3 CFU/ml; bacterial viability ([4]; 80 ug/ml): 100 ± 173 CFU/ml; bacterial viability ([4]; 100 ug/ml): 0 CFU/ml; Wash H2O, colonies ([5]; 1.0%): 0 CFU/ml; Enrichment, chicken legs out of ten ([5]; .01%): 8/10; Rinse H2O ([5]; .01%): + (1-10); Surfactant Solution ([5]; .01%): 0 CFU/ml; Swabs, chicken legs producing the notated number of colonies ([5]; .01%): 10/10; Swabs, colonies ([5]; .01%): + (1-10); Wash H2O, chicken legs producing the notated number of colonies ([5]; .01%): 10/10; Wash H2O, colonies ([5]; .01%): ++ (11-100)
